Patent publication US8106055B2, “Substituted amide compounds” (Gruenenthal GmbH, priority 2007, dated 2012)

Tests used:
[1] = molecular target: T1, human bradykinin 1 receptor (B1R) (Homo sapiens, UniProt P46663); assay: Functional investigation on the human bradykinin 1 receptor (B1R), Ca2+ FLIPR assay in CHO K1 hB1R cells; assay type: cell-based; conditions: B1R antagonism human; test substance 10 μM; Ca2+ FLIPR, CHO K1 hB1R cells
T1 construct: expressed in transfected cells; host or cells: CHO K1 cells
T1 sequence (P46663 1-353): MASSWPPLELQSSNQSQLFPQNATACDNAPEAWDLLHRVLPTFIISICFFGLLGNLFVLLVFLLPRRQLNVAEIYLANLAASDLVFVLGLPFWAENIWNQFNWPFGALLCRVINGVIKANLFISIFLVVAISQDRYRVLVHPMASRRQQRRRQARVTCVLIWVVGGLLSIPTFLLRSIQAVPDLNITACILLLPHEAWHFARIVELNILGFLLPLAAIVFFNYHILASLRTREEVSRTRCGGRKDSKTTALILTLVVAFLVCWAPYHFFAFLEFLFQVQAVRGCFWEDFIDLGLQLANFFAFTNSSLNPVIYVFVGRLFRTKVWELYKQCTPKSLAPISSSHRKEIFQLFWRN
Method in brief: (§1)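 Cells were dye-loaded with Fluo-4 plus probenecid, then test substances added and Ca2+ influx compared with agonist control for % activation. After 10-20 min, EC80 agonist (Lys-Des-Arg9-bradykinin human; Des-Arg9-bradykinin rat) was applied; suppression gave % inhibition and IC50 values.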

[2] = molecular target: T2, bradykinin 1 receptor (B1R) of the rat (Rattus norvegicus, UniProt P97583); assay: Functional investigation on the rat bradykinin 1 receptor (B1R), Ca2+ FLIPR assay in CHO K1 rB1R cells; assay type: cell-based; conditions: B1R antagonism rat; test substance 10 μM; Ca2+ FLIPR, CHO K1 rB1R cells
T2 construct: expressed in transfected cells; host or cells: CHO K1 cells
T2 sequence (P97583 1-337): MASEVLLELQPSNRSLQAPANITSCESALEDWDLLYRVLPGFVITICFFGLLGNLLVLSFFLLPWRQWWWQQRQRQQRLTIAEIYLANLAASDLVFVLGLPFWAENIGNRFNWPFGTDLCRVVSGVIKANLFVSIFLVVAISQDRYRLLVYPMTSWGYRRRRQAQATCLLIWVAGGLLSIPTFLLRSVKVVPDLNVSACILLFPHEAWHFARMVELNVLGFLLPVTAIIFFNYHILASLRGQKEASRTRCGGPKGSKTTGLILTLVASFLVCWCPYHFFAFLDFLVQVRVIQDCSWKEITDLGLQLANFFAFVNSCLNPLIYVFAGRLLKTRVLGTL
Method in brief: as §1

| SMILES | B1R Ant. h [10 μM] % Inhibition [1] | B1R Ant. r [10 μM] % Inhibition [2] |
| --- | --- | --- |
| CN(C)C(c1cccc(F)c1)C1CCC(CNC(=O)COCCC2CCN(S(=O)(=O)c3ccccc3)CC2)CC1 (centres unmarked) [Example 333] | 17% | 15% |
| CN(C)C(c1ccc(Cl)cc1)C1CCC(CCNC(=O)COCCN(C)S(=O)(=O)c2ccc(Cl)cc2Cl)CC1 (centres unmarked) [Example 291] | 105% | 36% |
| Cc1ccc(S(=O)(=O)N(C)CCOCC(=O)NCC2CCC(C(c3ccc(F)cc3)N(C)C)CC2)cc1 (centres unmarked) [Example 362] | 7% | 3% |
| COc1ccc(S(=O)(=O)N2CCCCC2COCC(=O)NCC2CCC(C(c3ccc(Cl)cc3)N(C)C)CC2)cc1 (centres unmarked) [Example 321] | 94% | 77% |
| CN(C)C(c1cccc(F)c1)C1CCC(CNC(=O)COCCN2CCN(S(=O)(=O)c3ccccc3)CC2)CC1 (centres unmarked) [Example 308] | −1% | 17% |
| COc1ccc(S(=O)(=O)N2CCCCC2CCOCC(=O)NCC2CCC(C(c3ccc(F)cc3)N(C)C)CC2)cc1 (centres unmarked) [Example 350] | 57% | 35% |
| Cc1ccc(S(=O)(=O)N(C)CCOCC(=O)NCCC2CCC(C(c3ccc(Cl)cc3)N(C)C)CC2)cc1 (centres unmarked) [Example 306] | 38% | 14% |
| COc1cc(C)c(S(=O)(=O)N2CCCC(OCC(=O)NC3CCC(C(c4cccc(F)c4)N(C)C)CC3)C2)c(C)c1C (centres unmarked) [Example 279] | 23% | 7% |
| CCN(CCOCC(=O)NCC1CCC(C(c2ccc(Cl)cc2)N(C)C)CC1)S(=O)(=O)c1c(C)cc(OC)c(C)c1C (centres unmarked) [Example 310] | 89% | 33% |
| CN(C)C(c1cccc(F)c1)C1CCC(CNC(=O)COC2CCN(S(=O)(=O)c3ccccc3)C2)CC1 (centres unmarked) [Example 355] | −7% | 28% |
| Cc1ccc(S(=O)(=O)N2CCC(OCC(=O)NCC3CCC(C(c4ccc(Cl)cc4)N(C)C)CC3)C2)cc1 (centres unmarked) [Example 304] | 22% | 19% |
| COc1ccc(S(=O)(=O)N(C)CCOCC(=O)NCC2CCC(C(c3ccc(Cl)cc3)N(C)C)CC2)cc1 (centres unmarked) [Example 324] | 42% | 48% |
| COc1ccc(S(=O)(=O)N2CCC(OCC(=O)NC3CCC(C(c4cccc(F)c4)N(C)C)CC3)C2)cc1OC (centres unmarked) [Example 323] | −14% | 23% |
| CN(C)C(c1ccc(F)cc1)C1CCC(CNC(=O)COCCN(C)S(=O)(=O)c2c(Cl)cccc2Cl)CC1 (centres unmarked) [Example 334] | 103% | 83% |
| COc1ccc(S(=O)(=O)N2CCCCC2COCC(=O)NCC2CCC(C(c3cccc(F)c3)N(C)C)CC2)cc1OC (centres unmarked) [Example 329] | −17% | 9% |
| Cc1cc(C)c(S(=O)(=O)N2CCC(OCC(=O)NC3CCC(C(c4ccc(F)cc4)N(C)C)CC3)C2)c(C)c1 (centres unmarked) [Example 332] | 57% | 32% |
| COc1ccc(S(=O)(=O)N2CCCCC2COCC(=O)NCCC2CCC(C(c3ccc(Cl)cc3)N(C)C)CC2)cc1 (centres unmarked) [Example 311] | 69% | 64% |
| CN(C)C(c1ccccc1)C1CCC(CNC(=O)COC2CCN(S(=O)(=O)c3ccccc3)CC2)CC1 (centres unmarked) [Example 300] | −35% | 7% |
| COc1cc(C)c(S(=O)(=O)N2CCC(OCC(=O)NCCC3CCC(C(c4cccc(F)c4)N(C)C)CC3)C2)c(C)c1 (centres unmarked) [Example 307] | 105% | 94% |
| CN(C)C(c1ccc(F)cc1)C1CCC(NC(=O)COCCN(C)S(=O)(=O)c2ccc(OC(F)(F)F)cc2)CC1 (centres unmarked) [Example 361] | 3% | 31% |
| COc1ccc(S(=O)(=O)N2CCCCC2COCC(=O)NCCC2CCC(C(c3cccc(F)c3)N(C)C)CC2)c(OC)c1 (centres unmarked) [Example 281] | 0% | 18% |
| COc1cc(C)c(S(=O)(=O)N2CCC(OCC(=O)NC3CCC(C(c4cccc(F)c4)N(C)C)CC3)CC2)c(C)c1C (centres unmarked) [Example 286] | 37% | −2% |

| SMILES | B1R Ant. h [10 μM] % Inhibition [1] | B1R Ant. r [10 μM] % Inhibition [2] |
| --- | --- | --- |
| CN(C)C(c1cccs1)C1CCC(NC(=O)COCCN2CCN(S(=O)(=O)c3ccccc3)CC2)CC1 (centres unmarked) [Example 341] | −1% | 18% |
| CN(C)C(c1ccc(Cl)cc1)C1CCC(CNC(=O)COC2CCCN(S(=O)(=O)c3ccccc3)C2)CC1 (centres unmarked) [Example 301] | 2% | 18% |
| COc1ccc(S(=O)(=O)N(C)CCOCC(=O)NCCC2CCC(C(c3cccc(F)c3)N(C)C)CC2)cc1 (centres unmarked) [Example 292] | 20% | 34% |
| CN(C)C(c1ccc(F)cc1)C1CCC(NC(=O)COC2CCN(S(=O)(=O)c3cccc(C(F)(F)F)c3)C2)CC1 (centres unmarked) [Example 330] | −6% | 16% |
| COc1ccc(S(=O)(=O)N2CCCCC2COCC(=O)NC2CCC(C(c3cccc(F)c3)N(C)C)CC2)cc1OC (centres unmarked) [Example 352] | −18% | −13% |
| CN(C)C(c1cccs1)C1CCC(NC(=O)COCCN(C)S(=O)(=O)c2ccc(OC(F)(F)F)cc2)CC1 (centres unmarked) [Example 282] | −31% | 20% |
| COc1cc(C)c(S(=O)(=O)N(C)CCOCC(=O)NCC2CCC(C(c3ccc(Cl)cc3)N(C)C)CC2)c(C)c1 (centres unmarked) [Example 348] | 103% | 99% |
| COc1ccc(S(=O)(=O)N2CCCCC2CCOCC(=O)NCC2CCC(C(c3ccc(Cl)cc3)N(C)C)CC2)cc1 (centres unmarked) [Example 312] | 71% | 31% |
| CN(C)C(c1ccc(F)cc1)C1CCC(NC(=O)COCCN(C)S(=O)(=O)c2ccc(Cl)cc2Cl)CC1 (centres unmarked) [Example 356] | 92% | 43% |
| COc1ccc(S(=O)(=O)N2CCCCC2COCC(=O)NCC2CCC(C(c3ccc(F)cc3)N(C)C)CC2)cc1 (centres unmarked) [Example 345] | 76% | 77% |
| CN(C)C(c1ccc(F)cc1)C1CCC(NC(=O)COCCN(Cc2ccccc2)S(=O)(=O)c2ccccc2)CC1 (centres unmarked) [Example 336] | 20% | 8% |
| CN(C)C(c1cccc(F)c1)C1CCC(CCNC(=O)COCCN(Cc2ccccc2)S(=O)(=O)c2ccccc2)CC1 (centres unmarked) [Example 278] | 16% | 7% |
| Cc1ccc(S(=O)(=O)N2CCC(OCC(=O)NCCC3CCC(C(c4ccc(Cl)cc4)N(C)C)CC3)C2)cc1 (centres unmarked) [Example 305] | 30% | 29% |
| CN(C)C(c1ccc(Cl)cc1)C1CCC(CNC(=O)COCCN(C)S(=O)(=O)c2cccc(C(F)(F)F)c2)CC1 (centres unmarked) [Example 314] | 74% | 13% |
| CN(C)C(c1ccc(F)cc1)C1CCC(NC(=O)COC2CCN(S(=O)(=O)c3ccc(Cl)cc3Cl)C2)CC1 (centres unmarked) [Example 290] | 37% | 37% |
| COc1cc(C)c(S(=O)(=O)N2CCC(OCC(=O)NCC3CCC(C(c4cccc(F)c4)N(C)C)CC3)CC2)c(C)c1C (centres unmarked) [Example 287] | 1% | −1% |
| CN(C)C(c1cccc(F)c1)C1CCC(CNC(=O)COCCN(C)S(=O)(=O)c2ccc(OC(F)(F)F)cc2)CC1 (centres unmarked) [Example 303] | −19% | 29% |
| CN(C)C(c1ccc(Cl)cc1)C1CCC(CNC(=O)COC2CCN(S(=O)(=O)c3cccc(C(F)(F)F)c3)C2)CC1 (centres unmarked) [Example 331] | 30% | 44% |
| COc1ccc(S(=O)(=O)N2CCCCC2COCC(=O)NC2CCC(C(c3cccc(F)c3)N(C)C)CC2)c(OC)c1 (centres unmarked) [Example 322] | −14% | 6% |
| COc1cc(C)c(S(=O)(=O)N(C)CCOCC(=O)NCC2CCC(C(c3ccc(Cl)cc3)N(C)C)CC2)c(C)c1C (centres unmarked) [Example 298] | 103% | 14% |
| COc1cc(C)c(S(=O)(=O)N(C)CCOCC(=O)NCCC2CCC(C(c3ccc(Cl)cc3)N(C)C)CC2)c(C)c1C (centres unmarked) [Example 317] | 103% | 18% |
